{"source": "patent US7989188B2", "about": "“Conjugates for cancer therapy and diagnosis” (BioSight Ltd., priority 2004, dated 2011)", "key": {"[1]": {"assay": "In-vitro toxicity profile, MTT cell viability", "type": "cell-based", "details": "human, HUVEC (human umbilical vein endothelial cells, normal), healthy cells (HUVEC), at the concentration of 5-FU that resulted in 90% mortality (IC90), FIG. 2", "experimental": "(§1) Materials and Methods: Human umbilical vein endothelial cells (HUVEC, normal) cells were grown in M199 medium supplemented with 20% fetal calf serum (FCS), vitamins, 1 ng/ml hbFGF, and antibiotics at […], 5% CO2. Human melanoma cells (WW-94, cancer) cells were grown in 50% DMEM/50% F-12 medium supplemented with 10% fetal calf serum and antibiotics.\n(§2) The cells were seeded in a 96-well ELISA dish at a concentration of 10,000-20,000 cells/well. The conjugates were added at concentrations that cause IC50 (50% lethality, FIG. 1), or IC90 (90% lethality, FIG. 2) by 5-FU. The cells were incubated for 72 hours at 37° C. and 5% CO2. After 72 hours the medium was aspirated, and DMEM containing 5% FCS and 0.5 mg/ml MTT (3-(4,5-Dimethyl-2-thiazolyl)-2,5-diphenyl-2H-tetrazolium bromide, an indicator of cell viability) was added. The cells were incubated for 2-4 hours at 37° C. and 5% CO2, washed with phosphate buffer saline (PBS) and dissolved in dimethylsulfoxide (DMSO). The results were analyzed using Techan ELISA reader equipped with a 570 nm filter. The results are represented as % of cell mortality."}, "[2]": {"system": "Human umbilical vein endothelial cells (HUVEC, normal)", "assay": "In-vitro toxicity profile, MTT cell viability", "type": "cell-based", "details": "normal cells (HUVEC), 72 hours, at the concentration of 5-FU that causes 50% mortality (IC50), FIG. 1", "experimental": "as §1, §2"}, "[3]": {"assay": "Acute intravenous (IV) toxicity, single injection, MTD and LD50", "details": "female, BALB/c, mouse, in vivo, iv", "experimental": "(§3) Purpose: To measure the potential acute intravenous (IV) toxicity of Asp(5-FU) in mice, estimated by Maximum Tolerated Dose (MTD) and 50% Lethal Dose (LD50).\n(§4) Method: The potential acute intravenous (IV) toxicity of the Asp(5-FU) was assessed in groups of BALB/c female mice of 5 mice per group, in order to establish appropriate MTD levels towards a projected series of various anti-tumorigenic efficacy trials.\n(§5) Asp(5-FU) was administered as single IV injections at three dose levels of 80, 150 and 200 mg/kg. One group was administered with saline served as control. In all instances, freshly prepared solutions were injected at a constant volume of 10 ml/kg."}, "[4]": {"system": "BALB/c female mice", "assay": "Acute intravenous (IV) toxicity, single injection, MTD and LD50", "experimental": "as §3, §4, §5"}, "[5]": {"system": "MX-1 human mammary duct carcinoma", "assay": "Anti-tumor activity, MX-1 xenograft murine model, intravenous treatment", "type": "in vivo, BALB/c nude mice", "details": "for increase in tumor volume at the end of the study period: injected Days 10, 14 and 18, Asp(5-FU) 50 and 100 mg/kg, 5-FU 26 mg/kg, saline 170%", "experimental": "The potential anti-tumor activity of Asp(5-FU) was assessed based on the relative growth inhibition of human mammary duct carcinoma, MX-1 murine model.\nPropagation of Tumor Material (MX-1 fragments): The Mammary Xenograft-1 (MX-1) is a human derived mammary duct carcinoma, supplied by the National Cancer Institute (NCI). The tissue was kept frozen until the time of implantation. The fragments (one to each animal in the study) were prepared according to the NCI recommended transplantation protocol.\nEach vial containing 5 to 6 fragments was rapidly thawed (60-90 seconds) in a water bath at 37-40° C. The frozen fragments were implanted immediately after thawing.\nTwo fragments were implanted close to each other at the same sub-axillary incision site of each animal assigned to the propagation phase. The mass doubling time of the MX-1 tumor during the logarithmic phase was 4-5 days post implantation. Subsequently, another 2 fragments were implanted into each of 6 animals to achieve at least a total of 20 implanted fragments.\nAt the end of the logarithmic phase, the donor animals were sacrificed, the tumors were excised, dissected and transferred to a sterile Petri dish placed over ice and cut into approximately 20 fragments (about 2×2×2 mm each) for their transplantation into 10 naïve mice. A total of 42 tumor fragments were transplanted at the end of the second propagation phase. No more than 30 minutes elapsed from the time the tumor was removed from the donor animals until transplantation.\nTumor Induction and Monitoring (Pre-Treatment): Upon completion of the propagation phase, tumor fragments measuring about 2×2×2 mm each, were implanted subcutaneously (SC) into the right flank of each test animal assigned to the main study. Tumor growth was monitored twice weekly and the total SC mass (mm^3) determined on the basis of width and length measurement using micrometer calipers. […]\nTumor volume changes were determined using the following equation: V (mm^3)=d^2 (mm^2)×D (mm)/2 wherein d and D represent the smallest and the largest perpendicular tumor diameters respectively. […]\nBody Weight: Individual body weights were determined prior to MX-1 fragment transplantation and thereafter once weekly until initiation of treatment. Following initiation of treatment individual body weights were determined twice weekly until the scheduled study termination or in case of removal of animals from the study due to animal welfare reasons, at the time of death.\nNecropsy Procedures and Macroscopic Examination: Necropsy was performed on all animals including those removed from the study for animal welfare reasons and all surviving 10 days after the last dosing session (Groups 1, 2 & 3), following euthanasia. […] All gross pathological changes were recorded. […]"}, "[6]": {"assay": "Acute toxicity (MTD), single administration by oral gavage", "details": "mouse, in vivo, po", "experimental": "(§6) OBJECTIVE: To determine the Maximum Tolerated Dose (MTD) of the test product, Asp(5-FU), following a single administration by oral gavage (PO) to mice.\n(§7) This experiment was performed essentially according to Example 22 supra, with the exception that the test agent and the controls were administered orally, by oral gavage. Asp(5-FU) was suspended in corn oil and administered by single oral gavage (PO), at 2 dose levels of 200 and 400 mg/kg, to 2 test groups. An additional equally sized group was administered the vehicle (corn oil) and served as control. In all instances the volume dosage was 10 ml/kg."}, "[7]": {"system": "mice", "assay": "Acute toxicity (MTD), single administration by oral gavage", "details": "single PO 200 and 400 mg/kg", "experimental": "as §6, §7"}, "[8]": {"system": "human mammary duct carcinoma xenograft MX-1", "assay": "Anti-tumor activity, MX-1 xenograft murine model, oral gavage", "type": "in vivo, mice", "details": "PO gavage 200 mg/kg, seven administrations at 3-days inter-dosing intervals", "experimental": "The compounds were administered to mice following about 3-6 hours food deprivation prior to dosing, using a suitable stainless steel feeding needle. Following dosing, food was withheld for further 1-2 hours.\nDose and Volume Dosage: 50 mg/kg reference item and 200 mg/kg of Asp(5-FU). In all instances, volume dosage was 10 ml/kg.\nFrequency and Duration: Treatment with Control, Test or Reference Items was carried out as 1× daily injection at 3-days inter-dosing intervals×7 (days 1-25)."}, "[9]": {"system": "mice", "details": "NIH report; cited from earlier work"}}, "data": [{"smiles": "NC(CC(=O)n1cc(F)c(=O)[nH]c1=O)C(=O)O", "note": "[Asp(5-FU), L-aspartic acid-beta-1N-(2,4-dioxo-5-fluoropyrimidine)]", "values": [{"measurement": "mortality at 72 h", "setting": "[1]", "result": 20, "unit": "%"}, {"measurement": "% of cell mortality", "setting": "[2]", "result": "did not kill normal cells"}, {"measurement": "LD50", "setting": "[3]", "result": 200, "unit": "mg/kg"}, {"measurement": "MTD", "setting": "[3]", "result": 160, "unit": "mg/kg"}, {"measurement": "less toxic than 5-FU", "setting": "[4]; female, BALB/c, mouse, in vivo", "result": 600, "unit": "%"}, {"measurement": "gross pathological findings at scheduled necropsy", "setting": "[4]; single IV 80, 150 and 200 mg/kg", "result": "No gross pathological findings"}, {"measurement": "Incidence of mortality", "setting": "[4]; single IV injection, high-dose group 200 mg/kg, immediate post-dosing period", "result": "3/5"}, {"measurement": "clinical signs", "setting": "[4]; single IV, high-dose 200 mg/kg, survivors or decedents respectively", "result": "brief decreased motor activity or lateral recumbency"}, {"measurement": "clinical signs", "setting": "[4]; single IV, intermediate- and low-dose 150 & 80 mg/kg", "result": "No obvious clinical signs"}, {"measurement": "Mean group body weight", "setting": "[4]; single IV, intermediate-dose group, Day 8, p<0.01, full recovery Day 8-15", "result": "transient reduced body weight"}, {"measurement": "tumor progression compared to controls", "setting": "[5]; Asp(5-FU) 50 and 100 mg/kg, tumor volume, FIG. 5", "result": "significant reduction in tumor progression"}, {"measurement": "tumor weight upon necropsy compared to 5-FU and saline control", "setting": "[5]; end of treatment period, FIG. 6", "result": "significant decrease"}, {"measurement": "increase in tumor volume at the end of the study period", "setting": "[5]", "result": 104, "unit": "%"}, {"measurement": "MTD at 14 days", "setting": "[6]", "result": "> 400", "unit": "mg/kg"}, {"measurement": "gross pathological findings at scheduled necropsy", "setting": "[7]", "result": "No gross pathological findings"}, {"measurement": "clinical signs in reaction to dosing", "setting": "[7]; 14-day observation period", "result": "No noticeable clinical signs"}, {"measurement": "progressive tumor development compared to corn oil controls", "setting": "[8]", "result": "relative decrease in progressive tumor development"}]}, {"smiles": "O=c1[nH]cc(F)c(=O)[nH]1", "note": "[Compound 5-FU, 2,4-dioxo-5-fluoropyrimidine]", "values": [{"measurement": "increase in tumor volume at the end of the study period", "setting": "[5]", "result": 185, "unit": "%"}, {"measurement": "LD50", "setting": "[9]", "result": 81, "unit": "mg/kg"}, {"measurement": "MTD", "setting": "[9]", "result": "24 to 26", "unit": "mg/kg"}]}]}
